Assay results taken from the NIST ThermoML archive (doi:10.1021/je0604277).
± gives the expanded uncertainty stated by the source. Blank lines part the entries; values can stand above or below the compound they belong to.

Columns and labels:
[1] = for viscosity: 101.33 kPa, Liquid, rotational viscometer; for surface tension liquid-gas: Pendant drop shape
[2] = 298.15 K; 101 kPa; Liquid mixture 1; rotated drop method

SMILES: CCCCn1cc[n+](C)c1.F[P-](F)(F)(F)(F)F [1-butyl-3-methylimidazolium hexafluorophosphate]
viscosity ([1]; 288.15 K): 400.2 ± 16 mPa·s | viscosity ([1]; 293.15 K): 294 ± 12 mPa·s | viscosity ([1]; 296.15 K): 245.8 ± 10 mPa·s | surface tension liquid-gas ([1]; 298.15 K): 53.1 ± 2.5 mN/m | viscosity ([1]; 298.15 K): 217.9 ± 8.6 mPa·s | viscosity ([1]; 301.15 K): 182.7 ± 7.4 mPa·s | viscosity ([1]; 303.15 K): 162.9 ± 6.5 mPa·s | viscosity ([1]; 305.15 K): 145.1 ± 5.6 mPa·s | viscosity ([1]; 308.15 K): 123.2 ± 4.8 mPa·s | viscosity ([1]; 311.15 K): 104 ± 4.1 mPa·s | viscosity ([1]; 313.15 K): 95 ± 3.6 mPa·s

SMILES: CCCCn1cc[n+](C)c1.F[P-](F)(F)(F)(F)F [1-butyl-3-methylimidazolium hexafluorophosphate] + C1CCCCC1
interfacial tension [2]: 13.15 ± 0.26 mN/m

SMILES: CCCCn1cc[n+](C)c1.F[P-](F)(F)(F)(F)F [1-butyl-3-methylimidazolium hexafluorophosphate] + C=CCCCC
interfacial tension [2]: 10.42 ± 0.21 mN/m

SMILES: CCCCn1cc[n+](C)c1.F[P-](F)(F)(F)(F)F [1-butyl-3-methylimidazolium hexafluorophosphate] + CCC(=O)O
interfacial tension [2]: 3.292 ± 0.066 mN/m

SMILES: CCCCn1cc[n+](C)c1.F[P-](F)(F)(F)(F)F [1-butyl-3-methylimidazolium hexafluorophosphate] + CCCCC
interfacial tension [2]: 13.65 ± 0.27 mN/m

SMILES: CCCCn1cc[n+](C)c1.F[P-](F)(F)(F)(F)F [1-butyl-3-methylimidazolium hexafluorophosphate] + CCCCCC
interfacial tension [2]: 13.39 ± 0.27 mN/m

SMILES: CCCCn1cc[n+](C)c1.F[P-](F)(F)(F)(F)F [1-butyl-3-methylimidazolium hexafluorophosphate] + CCCCCCCC
interfacial tension [2]: 14.29 ± 0.28 mN/m

SMILES: CCCCn1cc[n+](C)c1.F[P-](F)(F)(F)(F)F [1-butyl-3-methylimidazolium hexafluorophosphate] + CCCCCCCCCCO
interfacial tension [2]: 7.516 ± 0.15 mN/m

SMILES: CCCCn1cc[n+](C)c1.F[P-](F)(F)(F)(F)F [1-butyl-3-methylimidazolium hexafluorophosphate] + CCCCCCCCO
interfacial tension [2]: 7.385 ± 0.15 mN/m

SMILES: CCCCn1cc[n+](C)c1.F[P-](F)(F)(F)(F)F [1-butyl-3-methylimidazolium hexafluorophosphate] + CCCCCCCO
interfacial tension [2]: 6.41 ± 0.13 mN/m

SMILES: CCCCn1cc[n+](C)c1.F[P-](F)(F)(F)(F)F [1-butyl-3-methylimidazolium hexafluorophosphate] + CCCCCCO
interfacial tension [2]: 5.556 ± 0.11 mN/m

SMILES: CCCCn1cc[n+](C)c1.F[P-](F)(F)(F)(F)F [1-butyl-3-methylimidazolium hexafluorophosphate] + CCCCCO
interfacial tension [2]: 5.325 ± 0.11 mN/m

SMILES: CCCCn1cc[n+](C)c1.F[P-](F)(F)(F)(F)F [1-butyl-3-methylimidazolium hexafluorophosphate] + CCCCO
interfacial tension [2]: 4.706 ± 0.094 mN/m

SMILES: CCCCn1cc[n+](C)c1.F[P-](F)(F)(F)(F)F [1-butyl-3-methylimidazolium hexafluorophosphate] + CCCCOC(C)=O
interfacial tension [2]: 0.4344 ± 0.0087 mN/m

SMILES: CCCCn1cc[n+](C)c1.F[P-](F)(F)(F)(F)F [1-butyl-3-methylimidazolium hexafluorophosphate] + CCO
interfacial tension [2]: 1.222 ± 0.024 mN/m

SMILES: CCCCn1cc[n+](C)c1.F[P-](F)(F)(F)(F)F [1-butyl-3-methylimidazolium hexafluorophosphate] + CCOC(C)=O
interfacial tension [2]: 11.69 ± 0.23 mN/m

SMILES: CCCCn1cc[n+](C)c1.F[P-](F)(F)(F)(F)F [1-butyl-3-methylimidazolium hexafluorophosphate] + CCc1ccccc1
interfacial tension [2]: 3.995 ± 0.08 mN/m

SMILES: CCCCn1cc[n+](C)c1.F[P-](F)(F)(F)(F)F [1-butyl-3-methylimidazolium hexafluorophosphate] + Cc1ccccc1
interfacial tension [2]: 3 ± 0.06 mN/m

SMILES: CCCCn1cc[n+](C)c1.F[P-](F)(F)(F)(F)F [1-butyl-3-methylimidazolium hexafluorophosphate] + O
interfacial tension [2]: 10.06 ± 0.2 mN/m

SMILES: CCCCn1cc[n+](C)c1.F[P-](F)(F)(F)(F)F [1-butyl-3-methylimidazolium hexafluorophosphate] + c1ccccc1
interfacial tension [2]: 2.209 ± 0.044 mN/m

SMILES: CC(C)=Cn1cc[n+](C)c1.F[B-](F)(F)F [1-isobutenyl-3-methylimidazolium tetrafluoroborate]
viscosity ([1]; 288.15 K): 214.2 ± 8.2 mPa·s | viscosity ([1]; 293.15 K): 158.7 ± 6.5 mPa·s | viscosity ([1]; 296.15 K): 133.4 ± 5.4 mPa·s | surface tension liquid-gas ([1]; 298.15 K): 51.8 ± 2.2 mN/m | viscosity ([1]; 298.15 K): 118.5 ± 4.6 mPa·s | viscosity ([1]; 301.15 K): 100.4 ± 4 mPa·s | viscosity ([1]; 303.15 K): 88.9 ± 3.5 mPa·s | viscosity ([1]; 305.15 K): 79.8 ± 3.1 mPa·s | viscosity ([1]; 308.15 K): 68 ± 2.6 mPa·s | viscosity ([1]; 311.15 K): 58.6 ± 2.2 mPa·s | viscosity ([1]; 313.15 K): 53.4 ± 2 mPa·s

interfacial tension [2]: 8.788 ± 0.17 mN/m
SMILES: CCCCCCCCCCCCO [dodecan-1-ol] + CCCCn1cc[n+](C)c1.F[P-](F)(F)(F)(F)F

interfacial tension [2]: 1.793 ± 0.036 mN/m
SMILES: C=Cc1ccccc1 [styrene] + CCCCn1cc[n+](C)c1.F[P-](F)(F)(F)(F)F
